Here are results for 18 molecules from US11306079B2, “3-(5-amino-pyrazin-2-yl)-benzenesulfonamide derivatives and related compounds as PI3K-gamma kinase inhibitors” (Incyte Corporation, priority 2017, dated 2022).

As a reminder, the IC50 is the concentration that inhibits the measured activity by half.

Assay [1] concerns the target PI3Kδ (p110δ/p85α) Recombinant Human Protein (Homo sapiens (Human), UniProt O00329). Description: PI3Kδ Scintillation Proximity Assay. The note with it: 20 μM PIP2, 2 μM ATP, 3.4 nM PI3Kδ, 120 min, room temperature. It counts as biochemical. The essentials: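 Recombinant human p110δ/p85α (3.4 nM) phosphorylates 20 μM di-octanoyl PIP2 using 2 μM ATP spiked with [γ-33P]ATP, 120 min, room temperature, pH 6.7, 2% DMSO. Product measured by scintillation proximity; IC50 from dose-response fit.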
Background: In a scintillation proximity assay essentially only radioactivity close to the scintillant gives light.

In assay [2] the target is PI3Kγ (p110γ) Recombinant Human Protein (Homo sapiens (Human), UniProt P48736). The experiment in a line: PI3K-γ Scintillation Proximity Assay. Particulars: 20 μM PIP2, 2 μM ATP, 13 nM PI3Kγ, 120 min, room temperature. It counts as biochemical. The essentials:
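Recombinant human p110γ (13 nM) phosphorylated 20 μM PIP2 with 2 μM ATP plus [γ-33P]ATP in 20 mM MOPS pH 6.7, 10 mM MgCl2, 5 mM DTT, 0.03% CHAPS, 2% DMSO, 120 min at room temperature. Radiolabelled product was captured on WGA SPA beads and counted. IC50 came from curves of percent solvent-control activity.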

Assay [3] has as its system Phosphorylated Ribosomal Protein S6 (RPS6) in THP-1 cells. Description: THP-1 RPS6 ELISA Assay. The note with it: Homo sapiens; serum starved THP-1 cells, 2 hours with compound, 10 nM MCP-1 for 15 minutes, Phospho-RPS6 ELISA; read-out: PI3Kγ_THP1_RPS6_ELISA IC50. Format: cell-based. How it is done:
Example A. THP-1 RPS6 ELISA Assay
To measure the Phosphorylated Ribosomal Protein S6 (RPS6) in cell lysates, THP-1 cells (Human Acute Monocytic Leukemia) are purchased from ATCC (Manassas, Va.) and maintained in RPMI with 10% FBS (Gibco/Life Technologies, Carlsbad, Calif.). For the assay, THP-1 cells are serum starved overnight in RPMI, then plated in RPMI (2×10^5 cells/well in 90 μL) into 96-well flat-bottom tissue culture treated plates (Corning, Corning, N.Y.), in the presence or absence of a concentration range of test compounds. Covered plates are incubated for 2 hours at 37° C., 5% CO2 then treated with or without 10 nM MCP-1 (MYBioSource, San Diego, Calif.) for 15 minutes at 37° C., 5% CO2. Plates are centrifuged at 1600 RPM and supernatants are removed. Cells are lysed in Lysis Buffer (Cell Signaling, Danvers, Mass.) with Protease Inhibitor (Calbiochem/EMD, Germany), PMSF (Sigma, St Louis Mo.), HALTS (Thermo Fisher, Rockford, Ill.) for 30 min on wet ice. Cell lysates are frozen at −80° C. before testing. The lysates are tested in the Human/Mouse/Rat Phospho-RPS6 ELISA (R&D Systems, Inc. Minn, Minn.). The plate is measured using a microplate reader (SpectraMax M5—Molecular Devices, LLC Sunnyvale, Calif.) set to 450 nm with a wavelength correction of 540. IC50 determination is performed by fitting the curve of inhibitor percent inhibition versus the log of the inhibitor concentration using the GraphPad Prism 5.0 software.
(An ELISA detects its analyte on a solid surface through an enzyme-linked reagent.)

Each structure is given as a SMILES string. Counter-ions that a name gives are not always drawn.

Chain of PI3Kγ (p110γ) Recombinant Human Protein (P48736 whole entry): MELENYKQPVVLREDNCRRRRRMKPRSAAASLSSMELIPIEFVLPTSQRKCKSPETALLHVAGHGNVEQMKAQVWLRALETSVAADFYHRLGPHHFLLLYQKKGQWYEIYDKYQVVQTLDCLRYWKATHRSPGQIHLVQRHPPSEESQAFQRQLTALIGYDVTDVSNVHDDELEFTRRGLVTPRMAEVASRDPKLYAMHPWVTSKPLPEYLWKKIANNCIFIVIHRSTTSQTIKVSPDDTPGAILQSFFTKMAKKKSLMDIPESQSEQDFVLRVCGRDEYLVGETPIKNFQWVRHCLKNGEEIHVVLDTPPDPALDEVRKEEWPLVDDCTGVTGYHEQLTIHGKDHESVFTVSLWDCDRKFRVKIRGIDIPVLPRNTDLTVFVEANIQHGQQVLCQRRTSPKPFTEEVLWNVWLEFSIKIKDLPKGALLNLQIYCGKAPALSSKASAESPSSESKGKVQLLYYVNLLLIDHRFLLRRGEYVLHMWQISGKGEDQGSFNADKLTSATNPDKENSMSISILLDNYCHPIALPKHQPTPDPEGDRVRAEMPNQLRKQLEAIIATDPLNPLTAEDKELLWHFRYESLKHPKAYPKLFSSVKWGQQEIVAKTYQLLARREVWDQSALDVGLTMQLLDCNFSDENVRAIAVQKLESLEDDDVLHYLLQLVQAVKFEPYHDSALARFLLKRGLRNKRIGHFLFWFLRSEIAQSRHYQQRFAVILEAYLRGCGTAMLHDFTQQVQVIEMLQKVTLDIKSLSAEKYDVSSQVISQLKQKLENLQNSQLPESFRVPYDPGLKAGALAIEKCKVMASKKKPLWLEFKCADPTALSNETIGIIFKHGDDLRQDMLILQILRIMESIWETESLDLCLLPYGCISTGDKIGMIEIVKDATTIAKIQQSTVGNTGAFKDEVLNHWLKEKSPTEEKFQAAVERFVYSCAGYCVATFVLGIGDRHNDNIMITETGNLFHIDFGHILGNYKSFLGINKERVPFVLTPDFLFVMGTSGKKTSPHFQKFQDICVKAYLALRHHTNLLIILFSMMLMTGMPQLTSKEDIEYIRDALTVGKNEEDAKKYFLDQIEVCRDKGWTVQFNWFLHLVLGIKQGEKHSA
Chain of PI3Kδ (p110δ/p85α) Recombinant Human Protein (O00329 whole entry): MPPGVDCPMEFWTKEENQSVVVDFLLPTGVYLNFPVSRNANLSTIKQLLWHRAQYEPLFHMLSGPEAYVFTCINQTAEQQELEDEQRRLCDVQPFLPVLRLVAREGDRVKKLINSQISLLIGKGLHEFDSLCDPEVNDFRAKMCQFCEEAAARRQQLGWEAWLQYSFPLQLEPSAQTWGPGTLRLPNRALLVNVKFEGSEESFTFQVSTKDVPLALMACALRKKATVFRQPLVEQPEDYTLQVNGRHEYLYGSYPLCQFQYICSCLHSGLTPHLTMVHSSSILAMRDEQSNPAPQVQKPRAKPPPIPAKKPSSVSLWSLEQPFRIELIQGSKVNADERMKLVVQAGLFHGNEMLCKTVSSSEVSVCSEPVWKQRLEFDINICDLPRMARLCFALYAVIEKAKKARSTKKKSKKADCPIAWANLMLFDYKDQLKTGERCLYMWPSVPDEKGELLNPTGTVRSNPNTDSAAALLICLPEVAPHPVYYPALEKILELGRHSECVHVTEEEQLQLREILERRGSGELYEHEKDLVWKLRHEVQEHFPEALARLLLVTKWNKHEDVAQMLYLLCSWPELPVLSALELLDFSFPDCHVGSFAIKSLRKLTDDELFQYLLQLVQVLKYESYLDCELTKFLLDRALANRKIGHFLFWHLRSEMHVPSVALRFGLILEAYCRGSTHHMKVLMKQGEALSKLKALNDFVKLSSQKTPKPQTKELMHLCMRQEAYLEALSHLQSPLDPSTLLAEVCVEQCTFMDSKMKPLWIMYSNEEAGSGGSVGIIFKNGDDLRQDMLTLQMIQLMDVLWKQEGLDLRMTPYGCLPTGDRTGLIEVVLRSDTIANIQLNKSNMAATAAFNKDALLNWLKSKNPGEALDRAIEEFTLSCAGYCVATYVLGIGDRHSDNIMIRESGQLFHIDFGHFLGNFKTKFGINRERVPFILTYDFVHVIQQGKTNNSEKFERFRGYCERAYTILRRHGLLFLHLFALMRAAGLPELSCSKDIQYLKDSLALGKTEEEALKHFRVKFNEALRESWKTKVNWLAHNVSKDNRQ
Chain of PI3Kδ (p110δ/p85α) Recombinant Human Protein (P27986 whole entry partner): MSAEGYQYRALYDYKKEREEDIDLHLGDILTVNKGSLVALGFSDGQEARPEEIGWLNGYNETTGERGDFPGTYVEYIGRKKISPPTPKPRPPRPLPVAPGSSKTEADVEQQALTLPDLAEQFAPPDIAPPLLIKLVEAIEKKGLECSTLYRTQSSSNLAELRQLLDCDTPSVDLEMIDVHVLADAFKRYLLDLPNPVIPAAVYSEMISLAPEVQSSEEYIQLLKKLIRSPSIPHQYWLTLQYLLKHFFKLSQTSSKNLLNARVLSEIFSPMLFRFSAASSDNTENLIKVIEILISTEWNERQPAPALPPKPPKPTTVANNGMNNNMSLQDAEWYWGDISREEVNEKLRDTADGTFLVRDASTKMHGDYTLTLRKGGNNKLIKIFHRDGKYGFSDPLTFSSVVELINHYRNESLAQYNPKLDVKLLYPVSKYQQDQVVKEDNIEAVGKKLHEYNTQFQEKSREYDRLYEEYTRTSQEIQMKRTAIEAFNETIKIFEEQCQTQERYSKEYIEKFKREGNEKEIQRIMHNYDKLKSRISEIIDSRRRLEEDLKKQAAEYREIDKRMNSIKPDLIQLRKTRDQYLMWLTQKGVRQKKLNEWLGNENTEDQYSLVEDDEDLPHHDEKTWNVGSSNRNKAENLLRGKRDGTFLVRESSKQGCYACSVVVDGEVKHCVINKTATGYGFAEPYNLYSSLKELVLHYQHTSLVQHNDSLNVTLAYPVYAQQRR

Turning to `[2H]C([2H])([2H])c1ccc(S(=O)(=O)NC23CCC(O)(CC2)C3)cc1-c1cnc(N)c(-n2cncn2)n1` [Example 47, 3-(5-Amino-6-(1H-1,2,4-triazol-1-yl)pyrazin-2-yl)-N-(4-hydroxybicyclo[2.2.1]heptan-1-yl)-4-(methyl-d3)benzenesulfonamide Trifluoroacetate Salt], the IC50 in assay [1], in assay [2] and in assay [3] was at most 100 nM throughout.

With `Cc1ncc(-c2cc(-c3cc(S(=O)(=O)NC45CC(CO)(C4)C5)ccc3C)cnc2N)s1` [Example 87, 3-(6-amino-5-(2-methylthiazol-5-yl)pyridin-3-yl)-N-(3-(hydroxymethyl)bicyclo[1.1.1]pen-tan-1-yl)-4-methylbenzenesulfonamide], the IC50 in assay [1], in assay [2] and in assay [3] was at most 100 nM in each case.

In the case of `Cc1ccc(S(=O)(=O)NC23CNC(C2)C3)cc1-c1cnc(N)c(-n2cccn2)n1` [Example 58, 3-(5-Amino-6-(1H-pyrazol-1-yl)pyrazin-2-yl)-N-(2-azabicyclo[2.1.1]hexan-4-yl)-4-methylbenzenesulfonamide trifluoroacetate salt], the IC50 in assay [1] was at most 500 nM; in assay [2] it was at most 100 nM; in assay [3] it was at most 1000 nM.

On to `[2H]C([2H])([2H])c1ccc(S(=O)(=O)NC23CCN(CC2)C3)cc1-c1cnc(N)c(-c2ccncn2)n1` [Example 95, 3-(5-amino-6-(pyrimidin-4-yl)pyrazin-2-yl)-N-(1-azabicyclo[2.2.1]heptan-4-yl)-4-(methyl-d3)benzenesulfonamide], for which the IC50 in assay [1], in assay [2] and in assay [3] was at most 100 nM each time.

In the case of `[2H]C([2H])([2H])c1ccc(S(=O)(=O)NC23CCC(O)(C2)C3)cc1-c1cnc(N)c(-c2ccncn2)n1` [Example 80, 3-(5-Amino-6-(pyrimidin-4-yl)pyrazin-2-yl)-N-(4-hydroxybicyclo[2.1.1]hexan-1-yl)-4-(methyl-d3)benzenesulfonamide trifluoroacetate salt], the IC50 in assay [1], in assay [2] and in assay [3] was at most 100 nM in each case.

As to `Cc1ccc(S(=O)(=O)NC23CCN(CC2)C3)cc1-c1cnc(N)c(-n2cccn2)n1` [Example 93, 3-(5-amino-6-(1H-pyrazol-1-yl)pyrazin-2-yl)-N-(1-azabicyclo[2.2.1]heptan-4-yl)-4-methylbenzenesulfonamide], the IC50 in assay [1], in assay [2] and in assay [3] was at most 100 nM throughout.

In the case of `Cc1ccc(S(=O)(=O)NC23CCC(C#N)(C2)C3)cc1-c1cnc(N)c(-c2ncn(C)n2)n1` [Example 46, 3-(5-Amino-6-(1-methyl-1H-1,2,4-triazol-3-yl)pyrazin-2-yl)-N-(4-cyanobicyclo[2.1.1]hexan-1-yl)-4-methylbenzenesulfonamide Trifluoroacetate Salt], the IC50 was at most 100 nM in assay [1], at most 100 nM in assay [2] and at most 500 nM in assay [3].

As to `[2H]C([2H])([2H])c1ccc(S(=O)(=O)NC23CCN(CC2)C3)cc1-c1cnc(N)c(-c2cnco2)n1` [Example 94, 3-(5-amino-6-(oxazol-5-yl)pyrazin-2-yl)-N-(1-azabicyclo[2.2.1]heptan-4-yl)-4-(methyl-d3)benzenesulfonamide], the IC50 is at most 500 nM in assay [1], at most 100 nM in assay [2] and at most 100 nM in assay [3].

As for `Cc1ccc(S(=O)(=O)NC23CC(C(=O)N4CCC4)(C2)C3)cc1-c1cnc(N)c(-n2cncn2)n1` [Example 34, 3-(5-Amino-6-(1H-1,2,4-triazol-1-yl)pyrazin-2-yl)-N-(3-(azetidine-1-carbonyl)bicyclo[1.1.1]pentan-1-yl)-4-methylbenzenesulfonamide trifluoroacetate salt], the IC50 in assay [1] was at most 500 nM; in assay [2], at most 100 nM; in assay [3] it was at least 1000 nM.

On to `[2H]C([2H])([2H])c1ccc(S(=O)(=O)NC23CCC(C#N)(C2)C3)cc1-c1cnc(N)c(-c2ncco2)n1` [Example 71, 3-(5-Amino-6-(oxazol-2-yl)pyrazin-2-yl)-N-(4-cyanobicyclo[2.1.1]hexan-1-yl)-4-(methyl-d3)benzenesulfonamide trifluoroacetate salt], for which the IC50 in assay [1] was at most 500 nM; in assay [2], at most 100 nM; in assay [3], at most 500 nM.

Take `Cc1ccc(S(=O)(=O)NC23CCC(O)(CC2)C3)cc1-c1cnc(N)c(-c2ccncc2)n1` [Example 17, 3-(5-Amino-6-(pyridin-4-yl)pyrazin-2-yl)-N-(4-hydroxybicyclo[2.2.1]heptan-1-yl)-4-methylbenzenesulfonamide Trifluoroacetate Salt]: the IC50 in assay [1] is at most 500 nM; in assay [2], at most 100 nM; in assay [3], at most 500 nM.

In the case of `Cc1ccc(S(=O)(=O)NC23CCC(O)(CC2)C3)cc1-c1cnc(N)c(-c2cccnc2)n1` [Example 16, 3-(5-Amino-6-(pyridin-3-yl)pyrazin-2-yl)-N-(4-hydroxybicyclo[2.2.1]heptan-1-yl)-4-methylbenzenesulfonamide Trifluoroacetate Salt], the IC50 was at most 100 nM in assay [1], at most 100 nM in assay [2] and at most 500 nM in assay [3].

Consider `O=C(O)C(F)(F)F.[2H]C([2H])([2H])c1ccc(S(=O)(=O)NC23CNC(C2)C3)cc1-c1cnc(N)c(-c2cnc(C3CC3)s2)n1` [Example 55, 3-(5-Amino-6-(2-cyclopropylthiazol-5-yl)pyrazin-2-yl)-N-(2-azabicyclo[2.1.1]hexan-4-yl)-4-(methyl-d3)benzenesulfonamide trifluoroacetate salt], for which the IC50 in assay [1] was at most 100 nM; in assay [2], at most 100 nM; in assay [3], at most 500 nM.

As to `Cc1ccc(S(=O)(=O)NC23CCC(O)(C2)C3)cc1-c1cnc(N)c(-n2cncn2)n1` [Example 30, 3-(5-Amino-6-(1H-1,2,4-triazol-1-yl)pyrazin-2-yl)-N-(4-hydroxybicyclo[2.1.1]hexan-1-yl)-4-methylbenzenesulfonamide Trifluoroacetate Salt], the IC50 in assay [1] was at most 500 nM; in assay [2], at most 100 nM; in assay [3], at most 500 nM.

Regarding `[2H]C([2H])([2H])c1ccc(S(=O)(=O)NC23CC(C#N)(C2)C3)cc1-c1cnc(N)c(-c2cnco2)n1` [Example 73, 3-(5-Amino-6-(oxazol-5-yl)pyrazin-2-yl)-N-(3-cyanobicyclo[1.1.1]pentan-1-yl)-4-(methyl-d3)benzenesulfonamide trifluoroacetate salt], the IC50 in assay [1], in assay [2] and in assay [3] was at most 100 nM throughout.

With `[2H]C([2H])([2H])c1ccc(S(=O)(=O)NC23CCC(C#N)(C2)C3)cc1-c1cnc(N)c(-c2ccn(C)n2)n1` [Example 63, 3-(5-Amino-6-(1-methyl-1H-pyrazol-3-yl)pyrazin-2-yl)-N-(4-cyanobicyclo[2.1.1]hexan-1-yl)-4-(methyl-d3)benzenesulfonamide Trifluoroacetate Salt], the IC50 in assay [1], in assay [2] and in assay [3] was at most 100 nM throughout.

Take `Cc1ccc(S(=O)(=O)NC23CCC(C#N)(C2)C3)cc1-c1cnc(N)c(-n2cccn2)n1` [Example 62, 3-(5-Amino-6-(1H-pyrazol-1-yl)pyrazin-2-yl)-N-(4-cyanobicyclo[2.1.1]hexan-1-yl)-4-methylbenzenesulfonamide Trifluoroacetate Salt]: the IC50 in assay [1], in assay [2] and in assay [3] was at most 100 nM each time.

Consider `Cc1ncc(-c2cc(-c3cc(S(=O)(=O)NC45COC(CO)(C4)C5)ccc3C)cnc2N)s1` [Example 86, 3-(6-amino-5-(2-methylthiazol-5-yl)pyridin-3-yl)-N-(1-(hydroxymethyl)-2-oxabicyclo[2.1.1]hexan-4-yl)-4-methylbenzenesulfonamide], for which the concentration for half-maximal inhibition (IC50) in assay [1] is at most 500 nM; in assay [2] it was at most 100 nM; in assay [3], at most 500 nM.
